According to patent US4206117A, “Pyridinyl aminoalkyl ethers” (BASF Aktiengesellschaft, priority 1977, dated 1980):

What was measured:
[1] = tested on: Aconitineinduced arrhythmia, rats; experiment: animal or person; assay type: in vivo, rats (Sprague Dawley); conditions: for ED50 / Emax: Rattus norvegicus, po; for ED50: 1 h, read-out: Effective dose ED 50 (extends the duration of aconitine infusion by 50%); for Emax: read-out: R.M.A. (relative maximum activity); for Maximum action: Prolongation of the duration of aconitine infusion, Δ% / R.M.A. (relative maximum activity): at the highest nontoxic dose; for Maximum action: Prolongation of the duration of aconitine infusion, Δ% / Maximum action: Dose (highest nontoxic dose): oral, rats; for R.A. (relative activity) / R.M.A. (relative maximum activity): quinidine = 1.00
Protocol: (§1) To determine the anti-arrhythmic activity, the drugs were administered orally to rats (Sprague Dawley, weight from 180 to 240 g) 45 minutes before the start of the narcosis.
(§2) The animals were narcotized with thiobutabartial (100 mg/kg administered intraperitoneally). The arrhythmogenic substance used was aconitine, which was administered by intravenous infusion (at a rate of 0.005 mg/kg.min) 60 minutes after administration of the test substance.
(§3) For a quantitative evaluation of the linear relation between log dose (mg/kg) of the test substances and relative prolongation of the duration of aconitine infusion (Δ%), the dose which extended the duration of infusion by 50% (ED 50) was determined.

[2] = Therapeutic range, quotient of LD 50 (mice) and ED 50 (rats); assay type: in vivo; conditions: in vivo; LD 50 mice i.p. / ED 50 rats oral
Protocol: as §1
as §2, with “substance. In the case of untreated animals (N=30), arrhythmias occurred after an average of 3.7±0.9 minutes, the commencement of which can be delayed by anti-arrhythmic agents, the delay depending on the dosage.” for “substance.”
as §3, with “determined. The prior art anti-arrhythmic agent quinidine served as a comparative substance.” for “determined.”
(§4) The acute toxicity was determined on groups of 10 or 20 female Swiss mice, weighing 20-26 g, the compounds being administered intraperitoneally.

[3] = Acute toxicity, intraperitoneal administration; conditions: mouse, in vivo, ip, female Swiss mice, within 24 hours, read-out: Acute toxicity LD 50
Protocol: as §4

[4] = tested on: Aconitineinduced arrhythmia, rats; experiment: Therapeutic range, quotient of LD 50 (mice) and ED 50 (rats); assay type: in vivo; conditions: relative to quinidine
Protocol: as §1
as §2, with “substance. In the case of untreated animals (N=30), arrhythmias occurred after an average of 3.7±0.9 minutes, the commencement of which can be delayed by anti-arrhythmic agents, the delay depending on the dosage.” for “substance.”
as §3, with “determined. The prior art anti-arrhythmic agent quinidine served as a comparative substance.” for “determined.”
as §4

Compound	ED50 [1]	Emax [1]	Maximum action: Prolongation of the duration of aconitine infusion, Δ% [1]	Maximum action: Dose (highest nontoxic dose) [1]	R.A. (relative activity) [1]	selectivity ratio [2]	LD50 at 24 h [3]	R.M.A. (relative maximum activity) [1]	therapeutic range compared with that of quinidine (in words) [4]	effect achieved with the maximum dose, times as great as that of quinidine ([1]; relative to quinidine)	anti-arrhythmic action, times more powerful than that of quinidine ([1]; relative to quinidine)	therapeutic range, times as great as that of quinidine [4]
COC(=O)c1c(Cc2ccccc2)nc(C)c(OCCCN(C)C)c1C(=O)OC [Example 18]	9.82 mg/kg	222%	295%	215 mg/kg	4.35	17.3	170 mg/kg	–	–	–	–	–
Cc1nc(Cc2ccccc2)c2c(c1OCCCCNC(C)(C)C)COC2 [Example 61]	–	–	298%	46.4 mg/kg	4.60	–	–	2.24	–	–	–	–
Cc1nc(Cc2ccccc2)c2c(c1OCCCCNCCC(C)(C)O)COC2 [Example 68]	15.8 mg/kg	181%	241%	100 mg/kg	2.70	~4.31	~68.1 mg/kg	–	as great as	–	–	–
CCNCCCCOc1c(C)nc(Cc2ccccc2)c2c1COC2 [Example 58]	18.8 mg/kg	140%	186%	100 mg/kg	2.27	6.06	114 mg/kg	–	–	–	–	–
Cc1nc(Cc2ccccc2)c2c(c1OCCC(C)CCNC(C)C)COC2 (stereo not drawn) [Example 55]	–	–	333%	100 mg/kg	3.47	–	–	2.50	–	–	–	–
Cc1nc(Cc2ccccc2)c2c(c1OCCCCN(C(C)C)C(C)C)COC2 [Example 64]	21.2 mg/kg	238%	317%	100 mg/kg	2.01	7.36	156 mg/kg	–	–	–	–	–
CCc1nc(Cc2ccccc2)c2c(c1OCCCN(C)C)COC2 [Example 29]	18.1 mg/kg	204%	271%	215 mg/kg	2.34	5.75	104 mg/kg	–	–	–	–	–
CCCN(CCC)CCCOc1c(C)nc(Cc2ccccc2)c2c1COC2 [Example 36]	21 mg/kg	165%	219%	100 mg/kg	2.01	8.57	180 mg/kg	–	–	–	–	–
Cc1nc(Cc2ccccc2)c2c(c1OCC(O)CNC(C)C)COC2.Cl (stereo not drawn) [Example 69, 4-benzyl-6-methyl-1,3-dihydrofuro[3,4-c]pyridin-7-yl 2-hydroxy-3-isopropylaminopropyl ether hydrochloride]	23 mg/kg	164%	218%	464 mg/kg	1.84	4.65	107 mg/kg	–	–	–	–	–
CCOC(=O)c1c(Cc2ccccc2)nc(C)c(OCCCN(C)C)c1C(=O)OCC [Example 25]	15.9 mg/kg	147%	195%	100 mg/kg	2.67	8.62	137 mg/kg	–	–	–	–	–
CCN(CC)CCC(C)CCOc1c(C)nc(Cc2ccccc2)c2c1COC2 (stereo not drawn) [Example 57]	–	–	261%	100 mg/kg	3.74	–	–	1.96	–	–	–	–
Cc1nc(Cc2ccccc2)c2c(c1OCCCCCNC(C)C)COC2 [Example 52]	16 mg/kg	169%	225%	215 mg/kg	2.64	6.5	104 mg/kg	–	–	–	–	–
Cc1nc(Cc2ccccc2)c2c(c1OCCCNC(C)C)COC2 [Example 34, 4-benzyl-6-methyl-1,3-dihydro-furo[3,4-c]pyridin-7-yl 3-isopropylaminopropyl ether]	–	–	457%	215 mg/kg	1.46	–	–	3.44	–	3.4 times	–	–
CN(C)CCCOc1c(Cc2ccccc2)nc(Cc2ccccc2)c2c1COC2 [Example 32]	–	–	319%	215 mg/kg	2.84	–	–	2.40	–	–	–	–
Cc1nc(Cc2ccccc2)c2c(c1OCCN(C)C)COC2.Cl.Cl [Example 1, 4-benzyl-6-methyl-1,3-dihydro-furo[3,4-c]pyridin-7-yl β-dimethylaminoethyl ether bis-hydrochloride]	31 mg/kg	138%	184%	68.1 mg/kg	1.36	~4.74	~147 mg/kg	–	–	–	–	–
C=C[C@H]1C[N@@]2CC[C@H]1C[C@@H]2[C@@H](O)c1ccnc2ccc(OC)cc12 [Quinidine, quinidine, reference compound]	–	–	133%	–	–	–	–	–	–	–	–	–
Cc1nc(Cc2ccccc2)c2c(c1OCCCN1CCNCC1)COC2 [Example 43]	28.5 mg/kg	116%	154%	46.4 mg/kg	1.48	~5.16	~147 mg/kg	–	–	1.2 times	–	–
CCC(C)NCCCCOc1c(C)nc(Cc2ccccc2)c2c1COC2 (stereo not drawn) [Example 60]	21.1 mg/kg	185%	246%	100 mg/kg	2.00	4.79	101 mg/kg	–	–	–	–	–
Cc1nc(Cc2ccccc2)c2c(c1OCCCCNC(C)C)COC2 [Example 47]	–	–	358%	100 mg/kg	7.47	–	–	2.69	–	–	7.5 times	4.1 times
